Source: patent US20200345725A1, “Methods and Compositions for Treating Cancer” (Omeros Corporation, priority 2019, published 2020)
Marks after values point to notes of the source that are not given here.

Tests used:
ADBR2 = target: T1, ADBR2 (Homo sapiens, UniProt P07550); assay: CRE-Luc reporter assay with control receptor ADBR2; type: cell-based
T1 construct: host or cells: HEK293 or CHO cell lines (ATCC)

human PBMCs = assay: Th1 cytokines in supernatants of stimulated human PBMC, GPR174 inhibitor with adenosine pathway inhibitors (Examples 15, 18-22); type: cell-based; conditions: donor 7
Outline: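 Human donor PBMCs (1×10^6 cells/well) were stimulated with 1 µg/mL anti-CD3 (UCHT1) plus 0.1 µg/mL anti-CD28 (CD28.2) for 24 h with test agents. IFN-γ, IL-2, TNF and GM-CSF in supernatants were measured by ELISA, Legendplex or MSD. Fold changes were compared by one-way ANOVA with Tukey correction.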

[1] = high and low concentrations, ZM 0.1 μM
[2] = no ZM, 0.3 μM (compound 20: 3 μM)
[3] = no ZM, 1 μM (compound 20: 10 μM)
[4] = with ZM-241385 0.1 μM, 0.3 μM (compound 20: 3 μM)
[5] = with ZM-241385 0.1 μM, 1 μM (compound 20: 10 μM), label ZM = ZM alone

T1 sequence (P07550 whole entry): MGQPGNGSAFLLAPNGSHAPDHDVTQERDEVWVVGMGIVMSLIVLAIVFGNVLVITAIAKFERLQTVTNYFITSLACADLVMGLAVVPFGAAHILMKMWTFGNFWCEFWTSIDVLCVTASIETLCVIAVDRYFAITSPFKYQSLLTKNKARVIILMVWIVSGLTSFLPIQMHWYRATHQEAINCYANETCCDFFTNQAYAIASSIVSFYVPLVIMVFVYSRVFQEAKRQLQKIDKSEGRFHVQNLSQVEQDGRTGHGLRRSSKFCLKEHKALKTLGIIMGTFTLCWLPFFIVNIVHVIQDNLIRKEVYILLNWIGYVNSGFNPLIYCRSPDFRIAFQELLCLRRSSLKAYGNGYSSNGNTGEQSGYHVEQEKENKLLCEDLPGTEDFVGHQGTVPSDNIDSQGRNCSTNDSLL

## O=C(c1ccccc1)N1CCN(c2cc(N3CCCCC3)c(F)cc2[N+](=O)[O-])CC1 [compound 6]
ADBR2
  Gs pathway in the presence of ADBR2 (CRE-Luc reporter): did not inhibit
Human PBMCs; [1]
  synergy with ZM on GM-CSF (greater than the sum of the increases with each inhibitor alone): synergized with ZM
  synergy with ZM on IFN-γ (greater than the sum of the increases with each inhibitor alone): synergized with ZM
  synergy with ZM on IL-2 (greater than the sum of the increases with each inhibitor alone): synergized with ZM
  synergy with ZM on TNF (greater than the sum of the increases with each inhibitor alone): synergized with ZM
Human PBMCs; [2]
  GM-CSF, ratio relative to vehicle control: 3.9*
  IFN-γ, ratio relative to vehicle control: 2.0*
  IL-2, ratio relative to vehicle control: 1.5*
  TNF, ratio relative to vehicle control: 2.1*
Human PBMCs; [3]
  GM-CSF, ratio relative to vehicle control: 2.9*
  IFN-γ, ratio relative to vehicle control: 1.9*
  IL-2, ratio relative to vehicle control: 1.5*
  TNF, ratio relative to vehicle control: 2.1*
Human PBMCs; [4]
  GM-CSF, ratio relative to vehicle control: 6.2*
  IFN-γ, ratio relative to vehicle control: 3.1*
  IL-2, ratio relative to vehicle control: 1.9*
  TNF, ratio relative to vehicle control: 3.4*
Human PBMCs; [5]
  GM-CSF, ratio relative to vehicle control: 6.0*
  IFN-γ, ratio relative to vehicle control: 3.8*
  IL-2, ratio relative to vehicle control: 2.1*
  TNF, ratio relative to vehicle control: 4.0*
